# Assay results published in patent US9113629B2, “4-amino-6-(4-substituted-phenyl)-picolinates and 6-amino-2-(4-substituted-phenyl)-pyrimidine-4-carboxylates and their use as herbicides” (DOW AGROSCIENCES LLC, priority 2013, dated 2015).
# Tested on: test plant species in Direct Seeded Rice
# Assay: Postemergence herbicidal activity in direct seeded rice (Table 13)
# Type: in vivo
# Conditions: BRAPP: broadleaf signalgrass, Brachiaria platyphylla; 35 g ai/ha
# Source text: Seeds or nutlets of the desired test plant species were planted in a soil matrix prepared by mixing a loam soil (43 percent silt, 19 percent clay, and 38 percent sand, with a pH of about 8.1 and an organic matter content of about 1.5 percent) and river sand in an 80 to 20 ratio. The soil matrix was contained in plastic pots with a surface area of 139.7 cm^2. When required to ensure good germination and healthy plants, a fungicide treatment and/or other chemical or physical treatment was applied. The plants were grown for 10-17 d in a greenhouse with an approximate 14-h photoperiod which was maintained at about 29° C. during the day and 26° C. during the night. Nutrients and water were added on a regular basis and supplemental lighting was provided with overhead metal halide 1000-Watt lamps as necessary. The plants were employed for testing when they reached the second or third true leaf stage. A weighed amount, determined by the highest rate to be tested, of each test compound was placed in 25 mL glass vials and dissolved in a volume of 97:3 v/v acetone-DMSO to obtain 12× stock solutions. […] The concentrated stock solutions were added to the spray solutions so that the final acetone and DMSO concentrations were 16.2% and 0.5%, respectively. Spray solutions were diluted to the appropriate final concentrations with the addition of 10 mL of an aqueous mixture of 1.5% (v/v) Agri-dex crop oil concentrate. […] Compound requirements are based upon a 12 mL application volume at a rate of 187 L/ha. Formulated compounds were applied to the plant material with an overhead Mandel track sprayer equipped with […] nozzles calibrated to deliver 187 L/ha over an application area of 0.503 square meters (m^2) at a spray height of 18 inches (43 cm) above average plant canopy height. Control plants were sprayed in the same manner with the solvent blank. The treated plants and control plants were placed in a greenhouse as described above and watered by sub-irrigation to prevent wash-off of the test compounds. After 20-22 days, the condition of the test plants, compared with that of the untreated plants, was determined visually and scored on a scale of 0 to 100 percent where 0 corresponds to no injury and 100 corresponds to complete kill. By applying the well-accepted probit analysis as described by J. Berkson in Journal of the American Statistical Society, 48, 565 (1953) and by D. Finney in “Probit Analysis” Cambridge University Press (1952), the above data can be used to calculate GR20, GR50, GR80 and GR90 values, which are defined as growth reduction factors that correspond to the effective dose of herbicide required to kill or control 20 percent, 50 percent, 80 percent or 90 percent, respectively, of a target plant.
row,Compound,Visual Growth Reduction (%) 21 Days After Application BRAPP
1,COC(=O)c1nc(-c2ccc(C(F)(F)F)c(F)c2)c(Cl)c(N)c1Cl [Compound 58],G (0-29)

# Same assay, conditions: BRAPP: broadleaf signalgrass, Brachiaria platyphylla; 70 g ai/ha
row,Compound,Visual Growth Reduction (%) 21 Days After Application BRAPP
1,COC(=O)c1nc(-c2ccc(C(F)(F)F)c(F)c2)c(Cl)c(N)c1Cl [Compound 58],G (0-29)

# Same assay, conditions: BRAPP: broadleaf signalgrass, Brachiaria platyphylla; probit analysis
Compound,GR50 BRAPP [g ai/ha],GR80 BRAPP [g ai/ha]
COc1c(N)nc(-c2cc(F)c(Br)cc2F)nc1C(=O)O [Compound 11],13,44
COC(=O)c1nc(-c2ccc(C(F)(F)F)c(F)c2)c(Cl)c(N)c1Cl [Compound 58],>70,>70

# Same assay, conditions: CYPSS: sedge (Cyperus difformis, esculentus, iria); 35 g ai/ha
row,Compound,Visual Growth Reduction (%) 21 Days After Application CYPSS
1,COC(=O)c1nc(-c2ccc(C(F)(F)F)c(F)c2)c(Cl)c(N)c1Cl [Compound 58],A (95-100)

# Same assay, conditions: CYPSS: sedge (Cyperus difformis, esculentus, iria); 70 g ai/ha
row,Compound,Visual Growth Reduction (%) 21 Days After Application CYPSS
1,COC(=O)c1nc(-c2ccc(C(F)(F)F)c(F)c2)c(Cl)c(N)c1Cl [Compound 58],A (95-100)

# Same assay, conditions: CYPSS: sedge (Cyperus difformis, esculentus, iria); probit analysis
Compound,GR50 CYPSS [g ai/ha],GR80 CYPSS [g ai/ha]
COc1c(N)nc(-c2cc(F)c(Br)cc2F)nc1C(=O)O [Compound 11],1,1
COC(=O)c1nc(-c2ccc(C(F)(F)F)c(F)c2)c(Cl)c(N)c1Cl [Compound 58],4,8

# Same assay, conditions: ECHSS: barnyardgrass (Echinochloa crus-galli), junglerice (Echinochloa colonum); 35 g ai/ha
row,Compound,Visual Growth Reduction (%) 21 Days After Application ECHSS
1,COC(=O)c1nc(-c2ccc(C(F)(F)F)c(F)c2)c(Cl)c(N)c1Cl [Compound 58],G (0-29)

# Same assay, conditions: ECHSS: barnyardgrass (Echinochloa crus-galli), junglerice (Echinochloa colonum); 70 g ai/ha
row,Compound,Visual Growth Reduction (%) 21 Days After Application ECHSS
1,COC(=O)c1nc(-c2ccc(C(F)(F)F)c(F)c2)c(Cl)c(N)c1Cl [Compound 58],G (0-29)

# Same assay, conditions: ECHSS: barnyardgrass (Echinochloa crus-galli), junglerice (Echinochloa colonum); probit analysis
Compound,GR50 ECHSS [g ai/ha],GR80 ECHSS [g ai/ha]
COc1c(N)nc(-c2cc(F)c(Br)cc2F)nc1C(=O)O [Compound 11],11,25
COC(=O)c1nc(-c2ccc(C(F)(F)F)c(F)c2)c(Cl)c(N)c1Cl [Compound 58],>70,>70

# Same assay, conditions: LEFSS: sprangletop (Leptochloa chinensis, Leptochloa dubia); 35 g ai/ha
row,Compound,Visual Growth Reduction (%) 21 Days After Application LEFSS
1,COC(=O)c1nc(-c2ccc(C(F)(F)F)c(F)c2)c(Cl)c(N)c1Cl [Compound 58],G (0-29)

# Same assay, conditions: LEFSS: sprangletop (Leptochloa chinensis, Leptochloa dubia); 70 g ai/ha
row,Compound,Visual Growth Reduction (%) 21 Days After Application LEFSS
1,COC(=O)c1nc(-c2ccc(C(F)(F)F)c(F)c2)c(Cl)c(N)c1Cl [Compound 58],E (45-59)

# Same assay, conditions: LEFSS: sprangletop (Leptochloa chinensis, Leptochloa dubia); probit analysis
Compound,GR50 LEFSS [g ai/ha],GR80 LEFSS [g ai/ha]
COc1c(N)nc(-c2cc(F)c(Br)cc2F)nc1C(=O)O [Compound 11],175,463
COC(=O)c1nc(-c2ccc(C(F)(F)F)c(F)c2)c(Cl)c(N)c1Cl [Compound 58],>70,>70

# Same assay, conditions: ORYSS: Oryza sativa (crop); probit analysis
row,Compound,GR20 ORYSS [g ai/ha]
1,COc1c(N)nc(-c2cc(F)c(Br)cc2F)nc1C(=O)O [Compound 11],25
2,COC(=O)c1nc(-c2ccc(C(F)(F)F)c(F)c2)c(Cl)c(N)c1Cl [Compound 58],>70

# Same assay, conditions: ORYSS: Oryza sativa; 35 g ai/ha
row,Compound,Visual Growth Reduction (%) 21 Days After Application ORYSS
1,COC(=O)c1nc(-c2ccc(C(F)(F)F)c(F)c2)c(Cl)c(N)c1Cl [Compound 58],G (0-29)

# Same assay, conditions: ORYSS: Oryza sativa; 70 g ai/ha
row,Compound,Visual Growth Reduction (%) 21 Days After Application ORYSS
1,COC(=O)c1nc(-c2ccc(C(F)(F)F)c(F)c2)c(Cl)c(N)c1Cl [Compound 58],G (0-29)

# Same assay, conditions: SCPJU: Japanese bulrush, Scirpus juncoides; 35 g ai/ha
row,Compound,Visual Growth Reduction (%) 21 Days After Application SCPJU
1,COC(=O)c1nc(-c2ccc(C(F)(F)F)c(F)c2)c(Cl)c(N)c1Cl [Compound 58],A (95-100)

# Same assay, conditions: SCPJU: Japanese bulrush, Scirpus juncoides; 70 g ai/ha
row,Compound,Visual Growth Reduction (%) 21 Days After Application SCPJU
1,COC(=O)c1nc(-c2ccc(C(F)(F)F)c(F)c2)c(Cl)c(N)c1Cl [Compound 58],A (95-100)

# Same assay, conditions: SCPJU: Japanese bulrush, Scirpus juncoides; probit analysis
Compound,GR50 SCPJU [g ai/ha],GR80 SCPJU [g ai/ha]
COc1c(N)nc(-c2cc(F)c(Br)cc2F)nc1C(=O)O [Compound 11],1,1
COC(=O)c1nc(-c2ccc(C(F)(F)F)c(F)c2)c(Cl)c(N)c1Cl [Compound 58],5,8

# Same assay, conditions: SEBEX: hemp sesbania, Sesbania exaltata; 35 g ai/ha
row,Compound,Visual Growth Reduction (%) 21 Days After Application SEBEX
1,COC(=O)c1nc(-c2ccc(C(F)(F)F)c(F)c2)c(Cl)c(N)c1Cl [Compound 58],A (95-100)

# Same assay, conditions: SEBEX: hemp sesbania, Sesbania exaltata; 70 g ai/ha
row,Compound,Visual Growth Reduction (%) 21 Days After Application SEBEX
1,COC(=O)c1nc(-c2ccc(C(F)(F)F)c(F)c2)c(Cl)c(N)c1Cl [Compound 58],A (95-100)

# Same assay, conditions: SEBEX: hemp sesbania, Sesbania exaltata; probit analysis
Compound,GR50 SEBEX [g ai/ha],GR80 SEBEX [g ai/ha]
COc1c(N)nc(-c2cc(F)c(Br)cc2F)nc1C(=O)O [Compound 11],3,7
COC(=O)c1nc(-c2ccc(C(F)(F)F)c(F)c2)c(Cl)c(N)c1Cl [Compound 58],2,4

# Same assay, conditions: post-emergence, 504 h; BRAPP: broadleaf signalgrass, Brachiaria platyphylla; 35 g ai/ha; read-out: Visual Growth Reduction (%) 21 Days After Application BRAPP
row,Compound,pest or weed control at 35 g/ha [%]
1,COc1c(N)nc(-c2cc(F)c(Br)cc2F)nc1C(=O)O [Compound 11],60 to 74

# Same assay, conditions: post-emergence, 504 h; BRAPP: broadleaf signalgrass, Brachiaria platyphylla; 70 g ai/ha; read-out: Visual Growth Reduction (%) 21 Days After Application BRAPP
row,Compound,pest or weed control at 70 g/ha [%]
1,COc1c(N)nc(-c2cc(F)c(Br)cc2F)nc1C(=O)O [Compound 11],85 to 94

# Same assay, conditions: post-emergence, 504 h; CYPSS: sedge (Cyperus difformis, esculentus, iria); 35 g ai/ha; read-out: Visual Growth Reduction (%) 21 Days After Application CYPSS
row,Compound,pest or weed control at 35 g/ha [%]
1,COc1c(N)nc(-c2cc(F)c(Br)cc2F)nc1C(=O)O [Compound 11],95 to 100

# Same assay, conditions: post-emergence, 504 h; CYPSS: sedge (Cyperus difformis, esculentus, iria); 70 g ai/ha; read-out: Visual Growth Reduction (%) 21 Days After Application CYPSS
row,Compound,pest or weed control at 70 g/ha [%]
1,COc1c(N)nc(-c2cc(F)c(Br)cc2F)nc1C(=O)O [Compound 11],95 to 100

# Same assay, conditions: post-emergence, 504 h; ECHSS: barnyardgrass (Echinochloa crus-galli), junglerice (Echinochloa colonum); 35 g ai/ha; read-out: Visual Growth Reduction (%) 21 Days After Application ECHSS
row,Compound,pest or weed control at 35 g/ha [%]
1,COc1c(N)nc(-c2cc(F)c(Br)cc2F)nc1C(=O)O [Compound 11],85 to 94

# Same assay, conditions: post-emergence, 504 h; ECHSS: barnyardgrass (Echinochloa crus-galli), junglerice (Echinochloa colonum); 70 g ai/ha; read-out: Visual Growth Reduction (%) 21 Days After Application ECHSS
row,Compound,pest or weed control at 70 g/ha [%]
1,COc1c(N)nc(-c2cc(F)c(Br)cc2F)nc1C(=O)O [Compound 11],95 to 100

# Same assay, conditions: post-emergence, 504 h; LEFSS: sprangletop (Leptochloa chinensis, Leptochloa dubia); 35 g ai/ha; read-out: Visual Growth Reduction (%) 21 Days After Application LEFSS
row,Compound,pest or weed control at 35 g/ha [%]
1,COc1c(N)nc(-c2cc(F)c(Br)cc2F)nc1C(=O)O [Compound 11],0 to 29

# Same assay, conditions: post-emergence, 504 h; LEFSS: sprangletop (Leptochloa chinensis, Leptochloa dubia); 70 g ai/ha; read-out: Visual Growth Reduction (%) 21 Days After Application LEFSS
row,Compound,pest or weed control at 70 g/ha [%]
1,COc1c(N)nc(-c2cc(F)c(Br)cc2F)nc1C(=O)O [Compound 11],0 to 29

# Same assay, conditions: post-emergence, 504 h; ORYSS: Oryza sativa; 35 g ai/ha; read-out: Visual Growth Reduction (%) 21 Days After Application ORYSS
row,Compound,pest or weed control at 35 g/ha [%]
1,COc1c(N)nc(-c2cc(F)c(Br)cc2F)nc1C(=O)O [Compound 11],30 to 44

# Same assay, conditions: post-emergence, 504 h; ORYSS: Oryza sativa; 70 g ai/ha; read-out: Visual Growth Reduction (%) 21 Days After Application ORYSS
row,Compound,pest or weed control at 70 g/ha [%]
1,COc1c(N)nc(-c2cc(F)c(Br)cc2F)nc1C(=O)O [Compound 11],45 to 59

# Same assay, conditions: post-emergence, 504 h; SCPJU: Japanese bulrush, Scirpus juncoides; 35 g ai/ha; read-out: Visual Growth Reduction (%) 21 Days After Application SCPJU
row,Compound,pest or weed control at 35 g/ha [%]
1,COc1c(N)nc(-c2cc(F)c(Br)cc2F)nc1C(=O)O [Compound 11],95 to 100

# Same assay, conditions: post-emergence, 504 h; SCPJU: Japanese bulrush, Scirpus juncoides; 70 g ai/ha; read-out: Visual Growth Reduction (%) 21 Days After Application SCPJU
row,Compound,pest or weed control at 70 g/ha [%]
1,COc1c(N)nc(-c2cc(F)c(Br)cc2F)nc1C(=O)O [Compound 11],95 to 100

# Same assay, conditions: post-emergence, 504 h; SEBEX: hemp sesbania, Sesbania exaltata; 35 g ai/ha; read-out: Visual Growth Reduction (%) 21 Days After Application SEBEX
row,Compound,pest or weed control at 35 g/ha [%]
1,COc1c(N)nc(-c2cc(F)c(Br)cc2F)nc1C(=O)O [Compound 11],95 to 100

# Same assay, conditions: post-emergence, 504 h; SEBEX: hemp sesbania, Sesbania exaltata; 70 g ai/ha; read-out: Visual Growth Reduction (%) 21 Days After Application SEBEX
row,Compound,pest or weed control at 70 g/ha [%]
1,COc1c(N)nc(-c2cc(F)c(Br)cc2F)nc1C(=O)O [Compound 11],95 to 100
